The values that follow come from patent US7491521B2 (priority 2004, dated 2009).

“And” between values parts separate entries of the source, which are not always exact repeats. Identical values can stand only once.

The subject of assay [1] is E. coli harboring pUD15. Format: cell-based.
In assay [2] the test system is E. coli harboring pUD15 and pUD16. Format: cell-based.

`[Cl-].[Cl-].[Co+2]` [CoC12, CoCl2]: the “optical density of the culture at 600 nm” value in assay [1] is 2.808 and 2.6955 and 2.330; in assay [2], 2.524 and 2.173 and 2.113.
